“Also recorded” adds a separate entry of the source. Where no end group is shown, it is not given here.
What was measured:
HUVEC and fibroblasts [1] = assay: BrdU ELISA cell proliferation cytotoxicity assay; type: cell-based, human; conditions: for cytotoxicity / cell proliferation, BrdU assay: HUVEC and fibroblast monocultures, 24 hours
Experimental: (§1) In order to determine whether the fibrin E analogue peptides WTM33, WTM34, WTM35, WTM36, and WTM37 are cytotoxic when applied to the HUVEC and fibroblasts used in the Angiosys™ angiogenesis assay, these reagents were examined in two different cytotoxicity assays. To simplify performance of these assays and discriminate between fibroblasts and HUVEC, cells were grown in monocultures rather than together and then treated with the experimental reagents as described below.
Cytotoxicity of the fibrin E peptide analogues was also determined by examining cell proliferation, using a commercial BrdU ELISA (Roche Molecular Biochemicals) performed according to the manufacturer's instructions. This assay quantifies DNA synthesis as a measure of cellular proliferation, as stimulation or inhibition of cell replication will require a concomitant change in the rate of DNA synthesis. Measurement of DNA synthesis is achieved by incubating proliferating cells in medium in which thymidine has been replaced with the pyrimidine analogue 5-bromo-2′-deoxyuridine (BrdU). Once incorporated into the cellular DNA, BrdU is measured by immunoassay. Briefly, HUVEC and fibroblasts were seeded as monocultures into 96 well plates at a density of 5×10^3 cells per well, to a final volume of 100 μl per well in endothelial cell culture medium. At the end of an initial culture period of 72 hours under standard conditions, while the cells were still proliferating, fibrin E analogue peptides were added to a range of final concentrations, as shown in the FIG. 8. Each treatment concentration of each peptide was administered to four replicate wells. Control cells received standard medium without test compounds. The cells were incubated for 24 hours with the test compounds, before 10 μl of stock BrdU solution (100 μM) was added to give a final concentration of 10 μM BrdU, and the cells were incubated for a further 2 hours. The test medium was then removed from the cells and replaced with 200 μl per well of Fixing/Denaturing solution, which was incubated on the cells for a further 30 minutes at room temperature. This was then replaced with 100 μl per well anti-BrdU-POD (mouse monoclonal clone BMG 6H8, Fab fragments conjugated to peroxidase) prepared as directed, which was left on the cells for a further 90 minutes at room temperature. The antibody conjugate was then removed from the wells by rinsing three times in 200 μl per well of washing buffer (PBS) before 100 μl well substrate solution (tetramethyl-benzidine) was added and incubated at room temperature until colour development was sufficient for photometric detection (approximately 15 minutes). Absorbance at 370 nm was measured on a multi-well plate ELISA plate reader (Dynatech), with a reference wavelength of 492 nm. Mean absorbance values from each group of four wells were calculated and expressed as a percentage±standard deviation of the mean value obtained from control wells incubated in the absence of fibrin E analogue peptide.

HUVEC and fibroblasts [2] = assay: Neutral Red cell metabolism cytotoxicity assay; type: cell-based, human; conditions: for cytotoxicity / cell viability, Neutral Red assay: HUVEC and fibroblast monocultures, 72 hours
Experimental: as §1
A Neutral Red cell metabolism assay was used to determine the cytotoxicity to HUVEC and fibroblasts of the fibrin E analogue peptides. This assay works on the basis of colorimetric measurement of a red dye which, is reported to be taken up into the lysosomes of uninjured cells. Thus the stronger the colour signal obtained from a well of cells, the greater the percentage of cells remaining viable within that well. HUVEC cells were inoculated into wells of 96 wells at a density of 5×10^3 cells per well, in endothelial cell culture medium. Fibroblasts were similarly seeded 5×10^3 cells per well. The cells were incubated for 24 hours under standard conditions to permit adherence and growth, and then treated for 72 hours with fresh medium containing fibrin E peptides over the same range of concentrations used in the Angiosys™ angiogenesis assay. For each concentration of each of the six peptides, four replicate wells of each cell type were treated and then assayed. Following incubation with the test compounds, the medium was removed and replaced with 200 μl per well of fresh medium containing 3.57 mg neutral red per 100 ml. The cells were incubated with this neutral red solution for 3 hours, after which this solution was decanted and replaced with 100 μl 1% formaldehyde/1% CaCl2. This was rapidly decanted and replaced in turn with 200 μl 50% ethanol/1% acetic acid, which was incubated at room temperature for 30 minutes to extract the neutral red from the cells. The plates were then read in a 96 well plate-format spectrophotometer, measuring absorbance at 540 nm. Mean absorbance values from each group of four wells were calculated and expressed as a percentage±standard deviation of the mean value obtained from control wells incubated in the absence of fibrin E analogue peptide.

Chick fibroblasts = assay: Cell immunohistochemistry; type: binding; conditions: 8 mg per ml; 2 hours
Experimental: Chick fibroblasts were cultured in a 25 cm^2 flask (Nunc) until confluent (approximately 3×10^6 cells). The cells were washed in PBS and then trypsinised and diluted to 3×10^5 cells per ml in Dulbecco modified medium with 10% foetal calf serum. […] of the cells suspension was plated into each well of a Nunc culture well slide. The cells were incubated overnight to allow adhesion and recovery from the passaging. Digoxygenin labelled fibrin fragment E was added to a final concentration of 8 mg per ml. Control wells contained unconjugated digoxygenin and PBS.
The cells were rinsed after 2 hours with PBS then washed 3 times in TBS followed by one wash in distilled water. The cells were then incubated for 2 hours with sheep anti-digoxygenin alkaline phosphatase. The slides were then washed three times in TBS and developed with NBT and BCIP in bicarbonate buffer pH 9.8. The slides were air dried and then mounted for observation of membrane staining under the microscope.

[3] = system: Chick fibroblasts, Cos7, mouse 3T3 and human embryonic lung cells (HEL); assay: Cell binding assays (absorbance at 405 nm); conditions: 0-30 mg per well; 6 hours; each of the cell types
Experimental: Chick fibroblasts, Cos7, mouse 3T3 and human embryonic lung cells (HEL) were cultured in a 25 cm^2 flask (Nunc) until confluent (approximately 3×10^6 cells). The cells were trypsinised and resuspended at concentration of 1.3×10^5 cells/ml. 200 μl of this cell suspension was added to each well of a 96 well culture plate (Nunc). The cells were incubated overnight at 37° C. to allow adherence and recovery. The cells were then divided into three sections, digoxygenin controls, PBS controls and digoxygenin labelled fragment E tests. Increasing concentrations of digoxygenin and digoxygenin labelled fibrin fragment E were applied from 0-30 mg per well. The plates were incubated for 6 hours at 37° C. under culture conditions.
The plates were emptied of media and washed three times with PBS. The cells were then incubated for 2 hours with sheep antidigoxygenin alkaline phosphatase and developed with p-nitrophenyl phosphate in bicarbonate buffer pH 9.8. The plates were read on a Titertek Multiscan plate reader at 405 nm.

Molecule: SVDELNNNVEAVSQT [WTM36, SVDELNNNVEAVSQT]
- cytotoxicity / cell proliferation, BrdU assay (HUVEC and fibroblasts [1]): not cytotoxic; also recorded: exhibited an effect on the cell proliferation
- cell proliferation, BrdU assay (HUVEC and fibroblasts [1]; higher concentrations): potential for reduction in cell proliferation
- cytotoxicity / cell viability, Neutral Red assay (HUVEC and fibroblasts [2]): not cytotoxic; also recorded: no reduction in the viability of the cells

Molecule: SSSSFQYMYLL [WTM37, SSSSFQYMYLL]
- cytotoxicity / cell proliferation, BrdU assay (HUVEC and fibroblasts [1]): no toxicity to either cell type
- cytotoxicity / cell viability, Neutral Red assay (HUVEC and fibroblasts [2]): no toxicity to either cell type

Molecule: SLRPAPPPISGGGYR [WTM33, SLRPAPPPISGGGYR]
- cytotoxicity / cell survival, BrdU assay (HUVEC and fibroblasts [1]; 3, 12, 100 μg/ml): no effect on survival of either cell type
- cytotoxicity / cell proliferation, BrdU assay (HUVEC and fibroblasts [1]): not cytotoxic
- cytotoxicity / cell survival, Neutral Red assay (HUVEC and fibroblasts [2]; 3, 12, 100 μg/ml): no effect on survival of either cell type
- cytotoxicity / cell viability, Neutral Red assay (HUVEC and fibroblasts [2]): not cytotoxic

Molecule: QLQEALLQQERPIRN [WTM35, QLQEALLQQERPIRN]
- cytotoxicity / cell proliferation, BrdU assay (HUVEC and fibroblasts [1]): not cytotoxic; also recorded: no toxicity
- cytotoxicity / cell viability, Neutral Red assay (HUVEC and fibroblasts [2]): not cytotoxic; also recorded: no toxicity

B1: fibrin fragment E: fibrin fragment E (55 kD), used digoxygenin labelled in binding experiments (protein)
chain 1: GPRVVERHQSACKDSDWPFCSDEDWNYKCPSGCRMKGLIDEVNQDFTNRINKLKNSLFEYQK
chain 2: GHRPLDKKREEAPSLRPAPPPISGGGYRARPAKAAATQKKVERKAPDAGGCLHADPDLGVLCPTGCQLQEALLQQERPIRNSVDELNNNVEAVSQTSSSSFQYMYLLK
chain 3: YVATRDNCCILDERFGSYCPTTCGIADFLSTYQTKVDKDLQSLEDILHQVENKTSEVKQLIK
- binding to cells (membrane staining) (Chick fibroblasts): shown to bind
- binding to cells (absorbance at 405 nm compared to controls) [3]: high absorbance
